In patent publication US20200262813A1, “1,5,7-TRISUBSTITUTED ISOQUINOLINE DERIVATIVES, PREPARATION THEREOF, AND USE THEREOF IN MEDICINES” (SHANGHAI HAIYAN PHARMACEUTICAL TECHNOLOGY CO., LTD., priority 2016, published 2020):
Where two headings read alike, the source gives them in different places.

Legend:
Pfeiffer cells = experiment: Cell proliferation test (cell counting kit-8, 6 days); type: cell-based; conditions: 6 days' growth
Method: Cells were harvested by centrifuge and densities were determined using a CounterStar cell counter. Appropriate number of cells were plated in a 96-well culture plate and incubated overnight. Compounds to be tested were 1:3 diluted for 8 gradient points and added into corresponding wells. After 6 days' growth, cell counting kit-8 (Dojindo) was used to detect cell viability and absorbance values were read on Tecan infinite pro.

[1] = target: Recombinant PRC2 (EZH2-Y641F) (Homo sapiens, UniProt Q15910, Y641F); experiment: In vitro methyltransferase activity test (LANCE Ultra); conditions: LANCE Ultra detection, 3 hours reaction;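 note: compounds tested as an 8-point threefold dilution series, fluorescence read after 1 h detection step at room temperature, IC50 derived from a four-parameter curve fit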
Recombinant PRC2 (EZH2-Y641F), sequence (Q15910 whole entry Y641F): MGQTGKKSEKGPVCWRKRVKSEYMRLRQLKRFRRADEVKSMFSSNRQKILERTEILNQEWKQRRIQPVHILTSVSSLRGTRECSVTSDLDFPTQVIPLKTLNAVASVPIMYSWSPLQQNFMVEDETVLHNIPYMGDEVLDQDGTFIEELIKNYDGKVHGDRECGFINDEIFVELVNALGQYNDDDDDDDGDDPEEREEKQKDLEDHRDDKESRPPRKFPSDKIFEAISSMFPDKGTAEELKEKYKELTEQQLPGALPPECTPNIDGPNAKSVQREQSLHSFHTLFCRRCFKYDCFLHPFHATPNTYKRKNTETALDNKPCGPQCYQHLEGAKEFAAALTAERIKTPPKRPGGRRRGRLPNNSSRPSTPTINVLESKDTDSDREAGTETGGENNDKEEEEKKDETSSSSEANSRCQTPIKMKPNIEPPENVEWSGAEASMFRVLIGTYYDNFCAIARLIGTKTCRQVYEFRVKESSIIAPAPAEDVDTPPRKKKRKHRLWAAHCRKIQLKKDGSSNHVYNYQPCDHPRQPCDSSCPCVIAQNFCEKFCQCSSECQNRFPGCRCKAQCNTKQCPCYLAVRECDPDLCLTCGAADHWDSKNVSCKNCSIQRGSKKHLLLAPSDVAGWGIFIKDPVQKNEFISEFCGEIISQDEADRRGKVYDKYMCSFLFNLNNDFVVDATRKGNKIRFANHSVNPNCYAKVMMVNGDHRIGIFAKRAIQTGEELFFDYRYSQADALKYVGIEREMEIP
Recombinant PRC2 (EZH2-Y641F), sequence (O75530 whole entry partner): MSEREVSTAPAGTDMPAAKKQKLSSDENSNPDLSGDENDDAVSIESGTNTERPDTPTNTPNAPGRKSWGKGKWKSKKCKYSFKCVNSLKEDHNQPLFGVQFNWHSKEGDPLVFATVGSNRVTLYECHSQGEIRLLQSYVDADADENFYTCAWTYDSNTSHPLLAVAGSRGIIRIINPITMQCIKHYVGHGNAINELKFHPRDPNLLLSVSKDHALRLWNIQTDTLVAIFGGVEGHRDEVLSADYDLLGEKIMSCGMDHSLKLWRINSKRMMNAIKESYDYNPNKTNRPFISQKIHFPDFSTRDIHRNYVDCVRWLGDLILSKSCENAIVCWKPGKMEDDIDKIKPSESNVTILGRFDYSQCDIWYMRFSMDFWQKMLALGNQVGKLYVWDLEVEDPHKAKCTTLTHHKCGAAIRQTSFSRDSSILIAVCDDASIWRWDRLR
Recombinant PRC2 (EZH2-Y641F), sequence (Q15022 whole entry partner): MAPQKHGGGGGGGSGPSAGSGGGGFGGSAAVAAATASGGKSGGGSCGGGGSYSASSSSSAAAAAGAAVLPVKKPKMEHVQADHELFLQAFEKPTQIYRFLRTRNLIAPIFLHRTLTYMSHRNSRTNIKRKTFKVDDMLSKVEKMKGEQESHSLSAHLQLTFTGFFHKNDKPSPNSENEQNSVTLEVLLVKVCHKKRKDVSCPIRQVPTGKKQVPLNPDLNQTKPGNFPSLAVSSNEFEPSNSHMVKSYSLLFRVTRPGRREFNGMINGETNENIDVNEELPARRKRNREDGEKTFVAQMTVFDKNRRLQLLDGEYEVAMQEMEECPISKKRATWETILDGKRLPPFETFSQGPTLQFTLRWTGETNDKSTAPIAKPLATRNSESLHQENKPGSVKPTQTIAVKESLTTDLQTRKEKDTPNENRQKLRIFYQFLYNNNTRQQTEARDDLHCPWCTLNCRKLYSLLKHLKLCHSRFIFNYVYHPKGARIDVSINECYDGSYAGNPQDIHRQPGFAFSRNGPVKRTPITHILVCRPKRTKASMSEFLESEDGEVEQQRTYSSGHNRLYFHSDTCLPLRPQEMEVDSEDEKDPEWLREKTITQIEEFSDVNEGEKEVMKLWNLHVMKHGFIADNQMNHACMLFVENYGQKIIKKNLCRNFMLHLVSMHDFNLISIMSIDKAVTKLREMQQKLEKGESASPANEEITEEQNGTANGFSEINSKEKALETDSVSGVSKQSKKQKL
Recombinant PRC2 (EZH2-Y641F), sequence (Q09028 whole entry partner): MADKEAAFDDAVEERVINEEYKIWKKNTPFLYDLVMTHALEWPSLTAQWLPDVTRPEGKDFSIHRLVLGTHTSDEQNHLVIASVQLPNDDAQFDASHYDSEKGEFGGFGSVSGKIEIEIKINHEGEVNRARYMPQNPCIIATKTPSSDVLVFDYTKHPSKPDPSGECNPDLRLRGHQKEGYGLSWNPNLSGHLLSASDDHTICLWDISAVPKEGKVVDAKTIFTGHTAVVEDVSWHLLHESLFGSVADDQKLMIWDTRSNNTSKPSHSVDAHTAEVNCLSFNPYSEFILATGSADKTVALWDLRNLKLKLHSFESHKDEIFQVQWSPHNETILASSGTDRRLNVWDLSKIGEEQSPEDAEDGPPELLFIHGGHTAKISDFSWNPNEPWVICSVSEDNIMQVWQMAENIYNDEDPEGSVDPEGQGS
Recombinant PRC2 (EZH2-Y641F), sequence (Q6ZN18 whole entry partner): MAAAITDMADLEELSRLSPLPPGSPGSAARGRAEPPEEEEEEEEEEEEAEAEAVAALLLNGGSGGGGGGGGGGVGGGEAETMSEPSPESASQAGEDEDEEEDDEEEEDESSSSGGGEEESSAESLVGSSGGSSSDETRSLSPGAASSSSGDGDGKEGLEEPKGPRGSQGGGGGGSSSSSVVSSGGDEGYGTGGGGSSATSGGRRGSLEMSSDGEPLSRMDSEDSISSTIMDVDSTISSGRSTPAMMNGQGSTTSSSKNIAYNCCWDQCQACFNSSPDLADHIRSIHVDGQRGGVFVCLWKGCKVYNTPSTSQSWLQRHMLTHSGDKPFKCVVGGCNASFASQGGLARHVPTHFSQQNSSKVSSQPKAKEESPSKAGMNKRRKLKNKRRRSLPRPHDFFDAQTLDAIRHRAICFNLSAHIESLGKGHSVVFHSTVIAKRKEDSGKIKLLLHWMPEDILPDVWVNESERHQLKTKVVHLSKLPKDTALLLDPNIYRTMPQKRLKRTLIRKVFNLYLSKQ

[2] = EZH2 Y641F IC50, Recombinant PRC2 (EZH2-Y641F)
[3] = read-out: EZH2 Y641F IC50, Recombinant PRC2 (EZH2-Y641F)

SMILES | IC50 (Pfeiffer cells; Homo sapiens, Pfeiffer, 144 h) [nM] | IC50 [1, 2] [nM] | IC50 (Pfeiffer cells) [nM] | IC50 [1, 3] [nM]
CCN(c1cc(-c2cncc(F)c2)cc2c(NCc3c(C)cc(C)[nH]c3=O)nccc12)C1CCN(C(C)C)CC1 [Compound Z-125] | 772 | 22 |  | 
CCN(c1cc(-c2ccccn2)cc2c(NCc3c(C)cc(C)[nH]c3=O)nccc12)C1CCN(C(C)C)CC1 [Compound Z-126] | 765 | 156 |  | 
CCN(c1cc(Cl)cc2c(NCc3c(C)cc(C)[nH]c3=O)nccc12)C1CCC(N(C)C)CC1 (centres unmarked) [Compound Z-132] |  |  | 301 | 107
CCN(c1cc(Cl)cc2c(NCc3c(C)cc(C)[nH]c3=O)nccc12)[C@H]1CC[C@@H](N(C)C)CC1 [Compound Z-136] | 465 | 49 |  | 
CCN(c1cc(C#CCN2CCOCC2)cc2c(NCc3c(C)cc(C)[nH]c3=O)nccc12)C1CCC(N(C)C)CC1 (centres unmarked) [Compound Z-177] | 444 | 31 |  | 
CCN(c1cc(C#CCN2CCOCC2)cc2c(NCc3c(C)cc(C)[nH]c3=O)nccc12)[C@H]1CC[C@@H](N(C)C)CC1 [Compound Z-179] |  |  | 540 | 15
CCN(c1cc(C#CCN2CCN(C)CC2)cc2c(NCc3c(C)cc(C)[nH]c3=O)nccc12)C1CCC(N(C)C)CC1 (centres unmarked) [Compound Z-180] | 380 | 13 |  | 
CCN(c1cc(N(C)c2cccnc2)cc2c(NCc3c(C)cc(C)[nH]c3=O)nccc12)[C@H]1CC[C@H](N(C)C)CC1 [Compound Z-183] | 395 | 128 |  | 
CCN(c1cc(N(C)c2cccnc2)cc2c(NCc3c(C)cc(C)[nH]c3=O)nccc12)C1CCC(N(C)C)CC1 (centres unmarked) [Compound Z-186] | 251 | 67 |  | 
CCN(c1cc(-c2cnc(N3CCOCC3)nc2)cc2c(NCc3c(OC)cc(C)[nH]c3=O)nccc12)C1CCC(N(C)C)CC1 (centres unmarked) [Compound Z-192] | 393 | 42 |  | 
CCN(c1cc(-c2ccc(N3CCN(C)CC3)nc2)cc2c(NCc3c(OC)cc(C)[nH]c3=O)nccc12)C1CCC(N(C)C)CC1 (centres unmarked) [Compound Z-193] | 620 | 21 |  | 
CCN(c1cc(-c2ccc(CN3CCN(C)CC3)nc2)cc2c(NCc3c(C)cc(C)[nH]c3=O)nccc12)C1CCC(O)CC1 (centres unmarked) [Compound Z-196] | 583 | 16 |  | 
CCN(c1cc(Cl)cc2c(NCc3c(OC)cc(C)[nH]c3=O)nccc12)C1CCC(N(C)C)CC1 (centres unmarked) [Compound Z-197] | 371 | 51 |  | 
CCN(c1cc(Cl)cc2c(NCc3c(C)cc(C)[nH]c3=O)nccc12)C1CCNCC1 [Compound Z-201] | 133 | 59 |  | 
CCN(c1cc(OCCOC)cc2c(NCc3c(C)cc(C)[nH]c3=O)nccc12)C1CCC(N(C)C)CC1 (centres unmarked) [Compound Z-206] | 234 | 115 |  | 
CCN(c1cc(Cl)cc2c(NCc3c(OC)cc(C)[nH]c3=O)nccc12)C1CCNCC1 [Compound Z-208] | 155 | 9 |  | 
CCN(c1cc(Cl)cc2c(NCc3c(C)cc(C)[nH]c3=O)nccc12)C1CC2CCC(C1)N2 (centres unmarked) [Compound Z-209] | 250 | 10 |  | 
CCN(c1c(F)c(-c2ccc(N3CCN(C)CC3)nc2)cc2c(NCc3c(C)cc(C)[nH]c3=O)nccc12)C1CCC(N(C)C)CC1 (centres unmarked) [Compound Z-218, 3-((5-((4-(dimethylamino)cyclohexyl) (ethyl)amino)-6-fluoro-7-(6-(4-methylpiperazin-1-yl)pyridin-3-yl)isoquinolin-1-ylamino)methyl)-4,6-dimethyl-2(1H)-one] | 212 | 28 |  | 
CCN(c1cc(-c2ccc(N3CCN(C)CC3)nc2)cc2c(NCc3c(C)cc(C)[nH]c3=O)nccc12)C1CCNC(C)C1 (centres unmarked) [Compound Z-220, 3-((5-(ethyl (2-methylpiperidin-4-yl)amino)-7-(6-(4-methylpiperazin-1-yl)pyridin-3-yl)isoquinolin-1-ylamino)methyl)-4,6-dimethylpyridine-2(1H)-one] | 651 | 31 |  | 
CCOc1cc(N(CC)C2CCC(N(C)C)CC2)c2ccnc(NCc3c(C)cc(C)[nH]c3=O)c2n1 (centres unmarked) [Compound Z-222, 3-((4-((4-(dimethylamino)cyclohexyl) (ethyl)amino)-2-ethoxy-1,7-naphthyridin-8-ylamino)methyl)-4,6-dimethyl-2(1H)-one] | 484 | 143 |  | 
CCN(c1c(F)c(-c2ccc(N3CCN(C)CC3)nc2)cc2c(NCc3c(C)cc(C)[nH]c3=O)nccc12)C1CCOCC1 [Compound Z-224, 3-((5-(ethyl(tetrahydro-2H-pyran-4-yl)amino)-6-fluoro-7-(6-(4-methylpiperazin-1-yl)pyridin-3-yl)isoquinolin-1-ylamino)methyl)-4,6-dimethyl-2(1H)-one] | 605 | 360 |  | 
CCN(c1c(F)c(-c2ccc(N3CCN(C)CC3)nc2)cc2c(NCc3c(C)cc(C)nc3O)nccc12)[C@H]1CC[C@H](N(C)C)CC1 [Compound Z-232, 3-((5-(((1R,4R)-4-(dimethylamino)cyclohexyl) (ethyl)amino)-6-fluoro-7-(6-(4-methylpiperazin-1-yl)pyridin-3-yl)isoquinolin-1-ylamino)methyl)-4,6-dimethyl-2(1H)-one] | 188 | 26 |  | 
